Test results as given in ChEMBL document CHEMBL1132787, “Novel heterocycles as selective alpha1-adrenergic receptor antagonists” (Bioorg Med Chem Lett, 2000).
pKi: −log10 of the molar value.

Columns and labels:
[1] = target: T1, Alpha-1D adrenergic receptor (Homo sapiens, UniProt P25100); assay: Compound was evaluated for its binding affinity to COS cell membrane expressing the human Alpha-1D adrenergic receptor; format: cell membranes
T1 sequence (P25100 whole entry): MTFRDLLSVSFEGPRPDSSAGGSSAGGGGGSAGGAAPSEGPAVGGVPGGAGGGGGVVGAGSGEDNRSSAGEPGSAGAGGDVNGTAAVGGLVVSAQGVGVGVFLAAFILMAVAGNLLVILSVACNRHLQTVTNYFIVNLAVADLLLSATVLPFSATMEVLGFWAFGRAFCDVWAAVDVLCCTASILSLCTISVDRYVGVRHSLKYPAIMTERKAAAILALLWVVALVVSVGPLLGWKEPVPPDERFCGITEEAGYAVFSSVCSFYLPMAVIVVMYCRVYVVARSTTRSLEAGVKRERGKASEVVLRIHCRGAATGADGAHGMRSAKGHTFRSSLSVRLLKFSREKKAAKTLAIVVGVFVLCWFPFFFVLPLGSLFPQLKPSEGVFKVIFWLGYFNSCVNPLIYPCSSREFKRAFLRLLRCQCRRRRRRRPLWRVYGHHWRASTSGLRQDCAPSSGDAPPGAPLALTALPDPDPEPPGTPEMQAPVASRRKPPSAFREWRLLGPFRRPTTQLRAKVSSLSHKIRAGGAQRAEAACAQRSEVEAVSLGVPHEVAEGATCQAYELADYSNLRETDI

[2] = target: T2, Alpha-1A adrenergic receptor (Homo sapiens, UniProt P35348); assay: Compound was evaluated for its binding affinity to COS cell membrane expressing the human Alpha-1A adrenergic receptor; format: cell membranes
T2 sequence (P35348 whole entry): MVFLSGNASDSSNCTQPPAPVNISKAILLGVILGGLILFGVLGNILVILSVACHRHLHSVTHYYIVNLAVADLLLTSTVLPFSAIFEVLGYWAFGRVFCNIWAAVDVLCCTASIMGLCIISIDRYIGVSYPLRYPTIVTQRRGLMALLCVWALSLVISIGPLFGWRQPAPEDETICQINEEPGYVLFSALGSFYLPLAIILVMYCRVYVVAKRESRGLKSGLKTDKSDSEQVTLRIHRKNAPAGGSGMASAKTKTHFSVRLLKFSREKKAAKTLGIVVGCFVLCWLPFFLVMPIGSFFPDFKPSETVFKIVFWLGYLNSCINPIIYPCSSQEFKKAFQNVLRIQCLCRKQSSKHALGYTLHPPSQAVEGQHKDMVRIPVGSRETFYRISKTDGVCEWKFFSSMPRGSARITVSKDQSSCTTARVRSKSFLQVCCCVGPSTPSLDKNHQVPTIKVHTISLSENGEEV

[3] = target: Alpha adrenergic receptor (1a and 1d) (Homo sapiens) (UniProt P35348+P25100); assay: Ratio of binding affinity of compound to human adrenergic receptor alpha-1d to that of human adrenergic receptor alpha-1a; format: protein assay
[4] = target: Adrenergic receptors; alpha-1 A & B (Homo sapiens) (UniProt P35348+P35368); assay: Ratio of binding affinity of compound to human adrenergic receptor alpha-1b to that of human adrenergic receptor alpha-1a; format: protein assay
[5] = target: T3, Alpha-1B adrenergic receptor (Homo sapiens, UniProt P35368); assay: Compound was evaluated for its binding affinity towards COS cell membrane expressing the human Alpha-1B adrenergic receptor; format: cell membranes
T3 sequence (P35368 whole entry): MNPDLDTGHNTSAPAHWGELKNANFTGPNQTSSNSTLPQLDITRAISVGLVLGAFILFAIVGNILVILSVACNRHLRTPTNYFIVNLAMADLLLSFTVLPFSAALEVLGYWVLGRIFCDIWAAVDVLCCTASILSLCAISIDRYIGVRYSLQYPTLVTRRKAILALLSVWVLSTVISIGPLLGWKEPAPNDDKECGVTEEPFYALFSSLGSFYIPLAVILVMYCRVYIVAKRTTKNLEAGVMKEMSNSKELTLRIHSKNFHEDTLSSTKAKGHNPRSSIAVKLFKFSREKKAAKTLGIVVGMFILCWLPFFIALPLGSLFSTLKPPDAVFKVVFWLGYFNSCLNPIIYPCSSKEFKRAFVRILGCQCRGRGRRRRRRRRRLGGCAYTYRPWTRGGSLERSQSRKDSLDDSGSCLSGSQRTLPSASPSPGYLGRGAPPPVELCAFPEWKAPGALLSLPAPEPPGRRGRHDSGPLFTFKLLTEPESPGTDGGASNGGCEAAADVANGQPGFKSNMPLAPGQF

SMILES | pKi [1] | pKi [2] | Ratio [3] | Ratio [4] | pKi [5]
CC(C)Oc1ccccc1N1CCN(Cc2cc(CN3CCCCC3=O)nn2C)CC1 | 7.36 | 8.05 | 5 | 308 | 5.56
CC(C)Oc1ccccc1N1CCN(Cc2cc(CN3CCCCC3=O)n[nH]2)CC1 | 6.75 | 8.68 | 84 | 1860 | 5.41
CC(C)Oc1ccccc1N1CCN(Cc2cc(CN3CCCCC3=O)nc(N)n2)CC1 | < 5.00 | 7.10 | > 127 | > 127 | < 5.00
CC(C)Oc1ccccc1N1CCN(Cc2cc(CN3CCCCC3=O)n(C)n2)CC1 | 7.28 | 8.43 | 14 | 832 | 5.51

Other lines, results leading:

pKi [1] | pKi [2] | Ratio [3] | Ratio [4] | pKi [5] | SMILES
5.82 | 7.05 | 17 | > 112 | < 5.00 | CC(C)Oc1ccccc1N1CCN(CC2=NOC(CN3CCCCC3=O)C2)CC1 (stereo not given)
6.57 | 8.42 | 72 | 1170 | 5.35 | CC(C)Oc1ccccc1N1CCN(Cc2cc(CN3CCCCC3=O)on2)CC1
